According to US9873715B2, “Macrolides useful as anticancer agents” (PIERRE FABRE MEDICAMENT, priority 2013, dated 2018):

Legend:
Format in all cases: cell-based
[1] = system: SkoV3: human ovarian adenocarcinoma cell line; assay: cell survival (ATP-lite luminescence), SkoV3; conditions: SK-OV-3, SkoV3, 48 hours incubation, read-out: EC50 for various tumor cell lines: SkoV3
Procedure: (§1) Molecules (I-1), (I-2) and (I-3) were identified during a test of antiproliferative activity on a metastatic melanoma cell line, WM266-4.
(§2) The cells are seeded in 96-well plates in phenol red-free RPMI 1640 medium (Seromed) to which is added 10% fetal calf serum (100 μl/well, 1·10^4 to 3·10^4 cells/ml depending on the line studied). After incubation for 24 hours at 37° C. in an incubator (5% CO2), the medium is replaced with the same medium further containing the compound to be tested (various concentrations are used) and then the plates are incubated for an additional 48 hours. Cell survival is evaluated by measuring luminescence after ATP release in the medium using the cell lysis solutions, luciferase and luciferin, included in the ATP-lite-M™ kit as recommended by the manufacturer (Packard, Rungis, France). Each experimental condition was tested at least three times in sextuplicate.

[2] = system: LoVo: human colon adenocarcinoma cell line; assay: cell survival (ATP-lite luminescence), LoVo; conditions: 48 hours incubation, read-out: EC50 for various tumor cell lines: LoVo
Procedure: as §1, §2

[3] = system: KB: human oral carcinoma cell line; assay: cell survival (ATP-lite luminescence), KB; conditions: 48 hours incubation, read-out: EC50 for various tumor cell lines: KB
Procedure: as §1, §2

[4] = system: A549: human lung adenocarcinoma cell line; assay: cell survival (ATP-lite luminescence), A549; conditions: A549, 48 hours incubation, read-out: EC50 for various tumor cell lines: A549
Procedure: as §1, §2

[5] = system: BxPC3: human pancreatic adenocarcinoma cell line; assay: cell survival (ATP-lite luminescence), BxPC3; conditions: BXPC-3, BxPC3, 48 hours incubation, read-out: EC50 for various tumor cell lines: BxPC3
Procedure: as §1, §2

[6] = system: KB-V1: vinblastine-resistant human cervix carcinoma cell line; assay: cell survival (ATP-lite luminescence), KB-V1; conditions: KB-V1, 48 hours incubation, read-out: EC50 for various tumor cell lines: KB-V1
Procedure: as §1, §2

[7] = system: Namalwa: Burkitt lymphoma cell line; assay: cell survival (ATP-lite luminescence), Namalwa; conditions: 48 hours incubation, read-out: EC50 for various tumor cell lines: Namalwa
Procedure: as §1, §2

SMILES | EC50 [1] [nM] | EC50 [2] [nM] | EC50 [3] [nM] | EC50 [4] [nM] | EC50 [5] [nM] | EC50 [6] [nM] | EC50 [7] [nM]
COCC1OC(OC2CC(OC)CC3C2C(C)=CC2/C=C/C=C/C(C)C(/C=C/c4nc(C(C)CCCC#N)oc4C)OC(=O)CC/C=C(C)\C=C\C23C)C(OC)C(O)C1O (stereo not drawn) [Molecule (I-1)] | 36000 | 0.04 | 0.31 | 0.011 | 0.22 | 0.7 | 0.31
COCC1OC(OC2CC(OC)CC3C2C(C)=CC2/C=C/C=C/C(C)C(/C=C/c4nc(C(C)CCCC#N)oc4C)OC(=O)CC/C=C(C)\C=C\C23C)C(OC)C(OC2OCC(OC)C(O)C2O)C1O (stereo not drawn) [Molecule (I-2)] | 1300 | 0.011 | 0.3 | < 0.001 | 0.21 | 0.49 | 0.36
CNC(=O)OC1C(OC)COC(OC2C(O)C(COC)OC(OC3CC(OC)CC4C3C(C)=CC3/C=C/C=C/C(C)C(/C=C/c5nc(C(C)CCCC#N)oc5C)OC(=O)CC/C=C(C)\C=C\C34C)C2OC)C1O (stereo not drawn) [Molecule (I-3)] | 320 | < 0.01 | 0.024 | < 0.001 | 0.012 | 0.73 | 0.32
